Data reported in US20080268013A1, “Polyethylene Oxide Polymers Including Anti-Inflammatory Glycodendrons” (EMORY UNIVERSITY, priority 2005, published 2008).

Experiments:
[1] = tested on: neutrophil and macrophage recruitment; assay: Thioglycollate induced murine model of peritoneal inflammation; format: in vivo, mouse; conditions: C57BL mice
Method: Acute inflammation was induced in a mouse model by thioglycollate injection into the peritoneal cavity.
Thioglycollate induced murine model of peritoneal inflammation. Mice (C57BL, male, 6-8 weeks old) were injected intraperitoneally with 2 mL of 3% thioglycollate broth. Five minutes later, animals received intravenous injections of 0.2 mL sterile pyrogen-free saline (S) with and without heparin (H) or analogs (3c) (0.5 mg/mouse with 0.2 ml saline). Mice were sacrificed after 3 hours and peritoneal cells harvested by lavage with 8 mL of ice-cold phosphate buffered saline (PBS) containing 3 mM EDTA. Peritoneal cells were counted and cells stained for 30 minutes at 4° C. with FITC-conjugated rat anti-mouse Gr-1 mAb diluted in PBS containing 2.5% FBS. After washing three times with PBS, FACScan analysis was performed as described by Wang et al. (2002) and was used to sort, count and analyze the percentage of neutrophils and macrophages which were converted to the cell number using the formula N/M=Total cell number X % of NIM, respectively (N:Neutrophil; M: Macrophages). The cells were gated (FACS) expressing a high level of Gr-1 antigen (N) and Mac-1 (M). (See additional ref: Lagasse; E., Weissman; I. J. Immunological Meth. 1996, 197, 139-150). Statistical differences among groups were analyzed by ANOVA method using StatView software.

E-selectin = assay: U937 cell adhesion to immobilized E-selectin; format: cell-based; conditions: immobilized E-selectin chimera
Method: U937 cell binding to immobilized E-, L- or P-selectin. […] After blocking the plate with 10% BSA in PBS, P-selectin (0.05 μg/well), L-selectin (4 μg/well) or E-selectin (1 μg/well) chimeras were added. After 1 hr, wells were washed with blocking solution. U937 cells were grown in RPMI-1640 medium (containing 10% fetal bovine serum (FBS), 100 U/ml penicillin and 100 μg/ml streptomycin in an atmosphere of 5% CO2 in air and 100% relative humidity. The cells were fluorescently labeled with 10 μM calcein AM in RPMI 1640 medium containing 2.5% FBS for 30 min at 37° C. The cells were collected by low speed centrifugation, washed three times with RPMI 1640 medium, and resuspended at a density of 2×10^6 cells/mL in medium without FBS. Heparin and test compounds, or 10 mM sodium EDTA (negative control) were added at 50 μL/well, and then the fluorescently labeled U937 cell suspension (50 μL/well) was added and incubated for 30 min at room temperature. Non-adherent cells were removed by rinsing the plates three times with PBS, and the number of adherent cells was quantified by measuring the fluorescence intensity at 485 nm after […] 2% Triton X-100 in 0.1 M Tris-HCl, pH 9.5. Raw data were converted to relative fluorescence intensity (RFI) for comparative purposes.

heparin was tested, and the “in vivo activity on inflammatory cell recruitment (in words)” value [1] was “inhibited inflammatory cell recruitment to a similar degree” and the “inhibitory activity toward E-selectin (U937 cell adhesion)” value (E-selectin) was “Neither heparin nor 3c exhibited substantial inhibitory activity”.
